Reference: publication PMC8143342, “β-Ionone Attenuates Dexamethasone-Induced Suppression of Collagen and Hyaluronic Acid Synthesis in Human Dermal Fibroblasts” (Biomolecules, 2021)

Molecular target: T1, glucocorticoid receptor (GR) (Homo sapiens, UniProt P04150)
T1 construct: gene NR3C1; full-length GR
T1 sequence (P04150 1-777): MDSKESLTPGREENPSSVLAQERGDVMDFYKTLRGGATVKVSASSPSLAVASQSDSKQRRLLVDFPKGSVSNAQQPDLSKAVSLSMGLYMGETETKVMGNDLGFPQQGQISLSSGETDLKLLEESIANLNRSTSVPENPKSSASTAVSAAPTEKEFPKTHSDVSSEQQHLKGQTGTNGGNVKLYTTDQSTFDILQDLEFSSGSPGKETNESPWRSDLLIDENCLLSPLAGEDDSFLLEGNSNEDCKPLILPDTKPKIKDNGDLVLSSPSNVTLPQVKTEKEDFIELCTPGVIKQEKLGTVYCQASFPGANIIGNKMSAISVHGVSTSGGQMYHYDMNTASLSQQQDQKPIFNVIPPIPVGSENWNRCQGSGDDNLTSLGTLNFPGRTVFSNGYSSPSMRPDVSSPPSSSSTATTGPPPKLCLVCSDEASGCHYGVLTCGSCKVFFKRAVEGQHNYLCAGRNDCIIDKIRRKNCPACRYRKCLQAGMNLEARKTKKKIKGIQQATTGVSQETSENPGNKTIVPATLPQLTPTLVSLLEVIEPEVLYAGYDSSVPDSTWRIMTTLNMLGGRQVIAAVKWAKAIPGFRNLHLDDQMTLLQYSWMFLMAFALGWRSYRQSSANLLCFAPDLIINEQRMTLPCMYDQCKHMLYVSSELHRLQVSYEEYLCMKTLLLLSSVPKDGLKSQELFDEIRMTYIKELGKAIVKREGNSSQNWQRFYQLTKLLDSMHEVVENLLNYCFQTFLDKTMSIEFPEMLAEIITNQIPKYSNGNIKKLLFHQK
Test: fluorescence polarization competition with fluorescent glucocorticoid ligand (PolarScreen GR Competitor Assay), purified GR
Format: binding

SMILES: CC(=O)/C=C/C1=C(C)CCCC1(C)C [β-ionone]
- IC50: 66.1 µM
